Source: patent US20140227731A1, “DRUG FOR ANALYSIS OF WATER TRANSPORT FUNCTION OF MEMBRANE PROTEIN IN BIOLOGICAL TISSUE” (TAIYO NIPPON SANSO CORPORATION, priority 2013, published 2014)

Tested on: radish
Assay: Permeation of red food coloring water into round radish slices
Procedure: Using radish that was cut into round slices with thicknesses of 6-10 cm, the bottom faces of the round slices were immersed in red food coloring water for 1-16 hours, As the red food coloring, Red No. 102 (chemical name: 7-hydroxy-8-(4-sulfonaphthylazo)-1,3-naphthylenedisulfonic acid=trisodium salt=1½ hydrate) was used.

In the case of `O.O.O.O=S(=O)([O-])c1cc(S(=O)(=O)[O-])c2c(N=Nc3ccc(S(=O)(=O)[O-])c4ccccc34)c(O)ccc2c1.O=S(=O)([O-])c1cc(S(=O)(=O)[O-])c2c(N=Nc3ccc(S(=O)(=O)[O-])c4ccccc34)c(O)ccc2c1.[Na+].[Na+].[Na+].[Na+].[Na+].[Na+]` [Red No. 102, 7-hydroxy-8-(4-sulfonaphthylazo)-1,3-naphthylenedisulfonic acid=trisodium salt=1½ hydrate], the “permeation of red food coloring into radish tissue” value (bottom face immersed, one hour elapsed) is reported as “had soaked into the connective tissue at the periphery of the round slices from the bottom face” and the “sites permeated by red food coloring water” value (immersed for 16 hours) is reported as “not found anywhere other than the connective tissue”.
